pIC50: −log10 of the molar value. “Also recorded” adds a separate entry of the source.
Experiments:
[1] = test system: CYP3A; conditions: read-out: IC50 against CYP3A; cited from earlier work
[2] = target: T1, rCYP3A5 (Homo sapiens, UniProt P20815); experiment: Reaction phenotyping with recombinant cytochrome P450 isoforms: rCYP3A5; format: in vitro ADME; conditions: 20 pmol/mL rP450, seongsanamide A 1 µM, pH 7.4, 5 min pre-incubation, 15 min at 37 °C with NADPH generating system, LC-MS/MS, n = 3
T1 construct: purchased Corning life sciences (Woburn, MA, USA)
Description: (§1) The incubation mixture consisted of 100 mM potassium phosphate buffer (pH 7.4), 20 pmol/mL rCYP1A2, 2A6, 2B6, 2C8, 2C9, 2C19, 2D6, 2E1, 2J2, 3A4 or 3A5 isoforms, and seongsanamide A (1 µM) in a final volume of 100 µL. After a 5 min pre-incubation period at 37 °C, reactions were initiated by the addition of an NADPH generating system and further incubated for 15 min at 37 °C. The reaction was terminated by placing the incubation tubes on ice and by immediately adding 50 µL of acetonitrile. After centrifugation, aliquots of the supernatant were injected into an LC-tandem mass spectrometer (MS/MS). Seongsanamide A and its four metabolites (M1~M4) were separated on a Kinetex XB-C18 column (100 × 2.1 mm, Phenomenex) and analyzed using a Shimadzu LC-MS 8040 MS/MS (Shimadzu, Kyoto, Japan) equipped with a Nexera X2 LC system (Shimadzu) coupled with an electrospray ionization (ESI) interface. LC elution conditions for the analysis of seongsanamide A and its four metabolites were: 10 to 90% B for 0–6 min, 90 to 10% B for 6–6.1 min, and 10% B for 6.1–10 min. Detection of the ions was performed by monitoring the transitions of m/z 836.5 → 565.3 for hydrolyzed seongsanamide A (M1), m/z 1021.5 → 836.5 for monohydroxy-seongsanamide A (M2), m/z 1037.5 → 836.5 for dihydroxy-seongsanamide A (M3), and m/z 1053.5 → 836.5 for tridihydroxy-seongsanamide A (M4). […]

[3] = test system: bone marrow-derived mast cells; conditions: even at 100 µM; cited from earlier work
Text: The genus Bacillus in the marine environment is known to produce structurally diverse peptides, including bicyclic peptides. Seongsanamide A (Figure 1) is one of four bioactive bicyclic depsipeptides isolated from Bacillus safensis KCTC 12796BP, which was obtained from a marine sponge collected from Seongsan on Jeju Island, Korea. It contains a unique isodityrosine moiety which is responsible for its bioactivity.

[4] = test system: nine cytochrome P450 enzymes; experiment: Inhibitory potential against nine cytochrome P450 isoforms in human liver microsomes (summary statements); format: in vitro ADME; conditions: pooled HLMs
Description: (§2) The inhibitory potency of seongsanamide A was evaluated by a previously described method with slight modifications in the pooled HLMs. The microsomal incubation was conducted using two cocktail sets containing P450-specific probe substrates; A: phenacetin (CYP1A2), bupropion (CYP2B6), amodiaquine (CYP2C8), tolbutamide (CYP2C9), omeprazole (CYP2C19), and dextromethorphan (CYP2D6); B: coumarin (CYP2A6), chlorzoxazone (CYP2E1), and midazolam (CYP3A). After incubation for 10 min at 37 °C in HLMs in the presence or absence of seongsanamide A (0, 0.5, 2, 5, 20, and 50 µM), the reaction was quenched with cold acetonitrile containing trimipramine as an internal standard. After centrifugation, aliquots of the supernatants were analyzed using LC-MS/MS as described previously. IC50 (concentration of the inhibitor causing 50% inhibition of the original enzyme activity) values were calculated using WinNonlin (Pharsight, Mountain View, CA, USA).

[5] = target: T2, rCYP3A4 (Homo sapiens, UniProt P08684); experiment: Reaction phenotyping with recombinant cytochrome P450 isoforms: rCYP3A4; format: in vitro ADME; conditions: 20 pmol/mL rP450, seongsanamide A 1 µM, pH 7.4, 5 min pre-incubation, 15 min at 37 °C with NADPH generating system, LC-MS/MS, n = 3
T2 construct: purchased Corning life sciences (Woburn, MA, USA)
Description: as §1

[6] = target: T3, CYP2B6 (Homo sapiens, UniProt P20813); experiment: Inhibition of CYP2B6 activity (bupropion hydroxylation) in pooled human liver microsomes; format: in vitro ADME; conditions: pooled HLMs, cocktail set A; inhibitor 0, 0.5, 2, 5, 20, 50 µM; 10 min at 37 °C; LC-MS/MS
T3 construct: with slight modifications in the pooled HLMs; tissue XenoTech XTreme 200; host or cells: pooled human liver microsomes
T3 sequence (P20813 1-491): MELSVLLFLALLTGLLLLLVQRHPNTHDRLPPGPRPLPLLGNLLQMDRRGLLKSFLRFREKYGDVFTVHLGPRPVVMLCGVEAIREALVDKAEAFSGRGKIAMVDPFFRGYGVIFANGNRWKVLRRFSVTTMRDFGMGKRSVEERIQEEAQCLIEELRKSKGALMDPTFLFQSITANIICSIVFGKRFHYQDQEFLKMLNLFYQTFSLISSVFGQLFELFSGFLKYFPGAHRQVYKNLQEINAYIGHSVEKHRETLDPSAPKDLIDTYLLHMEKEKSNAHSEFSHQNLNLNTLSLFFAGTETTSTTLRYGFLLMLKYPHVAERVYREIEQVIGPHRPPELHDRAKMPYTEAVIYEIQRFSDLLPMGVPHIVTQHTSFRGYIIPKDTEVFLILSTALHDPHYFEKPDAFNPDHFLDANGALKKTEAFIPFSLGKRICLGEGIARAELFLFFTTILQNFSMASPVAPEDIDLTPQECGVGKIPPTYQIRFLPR
Description: as §2

[7] = target: T4, CYP2E1 (Homo sapiens, UniProt P05181); format: in vitro ADME
T4 construct: with slight modifications in the pooled HLMs; tissue XenoTech XTreme 200; host or cells: pooled human liver microsomes
Description: as §2

[8] = target: T5, CYP1A2 (Homo sapiens, UniProt P05177); format: in vitro ADME
T5 construct: with slight modifications in the pooled HLMs; tissue XenoTech XTreme 200; host or cells: pooled human liver microsomes
T5 sequence (P05177 1-516): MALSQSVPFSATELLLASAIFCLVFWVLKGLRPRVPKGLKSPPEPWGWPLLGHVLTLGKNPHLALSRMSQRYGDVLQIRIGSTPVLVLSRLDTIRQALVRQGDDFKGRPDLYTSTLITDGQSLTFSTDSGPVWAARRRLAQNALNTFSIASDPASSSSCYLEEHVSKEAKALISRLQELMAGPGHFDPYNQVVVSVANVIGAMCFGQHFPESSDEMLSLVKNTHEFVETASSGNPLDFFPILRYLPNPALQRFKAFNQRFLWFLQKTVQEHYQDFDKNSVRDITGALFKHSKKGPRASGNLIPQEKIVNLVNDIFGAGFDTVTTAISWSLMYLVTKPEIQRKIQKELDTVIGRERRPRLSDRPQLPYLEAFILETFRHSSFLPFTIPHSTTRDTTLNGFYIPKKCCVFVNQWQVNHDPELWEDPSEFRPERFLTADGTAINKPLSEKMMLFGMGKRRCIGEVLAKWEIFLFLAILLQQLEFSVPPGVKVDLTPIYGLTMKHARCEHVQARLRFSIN
Description: as §2

T1 sequence (P20815 whole entry, canonical isoform): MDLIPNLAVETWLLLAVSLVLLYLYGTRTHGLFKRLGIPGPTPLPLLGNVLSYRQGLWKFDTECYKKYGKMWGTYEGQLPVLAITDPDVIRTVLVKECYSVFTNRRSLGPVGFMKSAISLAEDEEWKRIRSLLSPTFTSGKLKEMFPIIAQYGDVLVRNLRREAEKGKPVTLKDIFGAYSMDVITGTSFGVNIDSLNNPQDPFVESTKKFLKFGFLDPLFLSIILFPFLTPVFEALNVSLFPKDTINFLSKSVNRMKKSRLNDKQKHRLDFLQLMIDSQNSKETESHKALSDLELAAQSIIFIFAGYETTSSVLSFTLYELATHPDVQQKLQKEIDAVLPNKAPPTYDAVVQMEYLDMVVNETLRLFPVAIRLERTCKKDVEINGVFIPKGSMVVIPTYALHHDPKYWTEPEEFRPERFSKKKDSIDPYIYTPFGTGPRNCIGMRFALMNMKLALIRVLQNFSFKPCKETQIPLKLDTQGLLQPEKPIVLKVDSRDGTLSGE
T2 sequence (P08684 whole entry, canonical isoform): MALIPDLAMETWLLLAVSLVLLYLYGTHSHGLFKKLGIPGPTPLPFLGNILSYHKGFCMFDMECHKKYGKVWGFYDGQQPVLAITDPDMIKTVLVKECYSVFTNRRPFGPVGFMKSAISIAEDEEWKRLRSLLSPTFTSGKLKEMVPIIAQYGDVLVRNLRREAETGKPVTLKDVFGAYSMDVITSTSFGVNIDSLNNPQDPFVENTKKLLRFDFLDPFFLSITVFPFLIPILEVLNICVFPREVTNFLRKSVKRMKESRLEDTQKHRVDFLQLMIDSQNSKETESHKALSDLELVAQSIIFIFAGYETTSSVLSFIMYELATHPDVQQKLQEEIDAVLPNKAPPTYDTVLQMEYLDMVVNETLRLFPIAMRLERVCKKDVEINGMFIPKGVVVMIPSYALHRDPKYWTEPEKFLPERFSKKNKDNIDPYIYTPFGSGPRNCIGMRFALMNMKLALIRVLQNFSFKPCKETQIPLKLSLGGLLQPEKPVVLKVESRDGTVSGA
T4 sequence (P05181 whole entry): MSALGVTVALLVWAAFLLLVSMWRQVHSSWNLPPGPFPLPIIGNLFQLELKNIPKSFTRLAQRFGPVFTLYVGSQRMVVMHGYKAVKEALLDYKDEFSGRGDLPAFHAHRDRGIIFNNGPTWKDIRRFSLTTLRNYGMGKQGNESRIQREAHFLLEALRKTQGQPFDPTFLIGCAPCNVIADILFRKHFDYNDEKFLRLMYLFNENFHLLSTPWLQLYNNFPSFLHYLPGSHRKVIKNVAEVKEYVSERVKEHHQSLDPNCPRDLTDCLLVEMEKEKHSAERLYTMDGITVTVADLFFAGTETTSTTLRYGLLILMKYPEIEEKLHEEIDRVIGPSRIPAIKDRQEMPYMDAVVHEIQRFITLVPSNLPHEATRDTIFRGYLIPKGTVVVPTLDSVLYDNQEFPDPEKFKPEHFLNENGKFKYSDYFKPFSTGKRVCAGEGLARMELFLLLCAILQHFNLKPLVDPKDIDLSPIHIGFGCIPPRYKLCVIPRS

IC50 at 10 min ([4]; human, pooled human liver microsomes, all nine isoforms taken together, read-out: IC50 against the nine cytochrome P450 isoforms (summary bound))	Effect on the activities of the other P450 isoforms ([4]; seongsanamide A at 50 µM)	pIC50 [6]	IC50, chlorzoxazone 6-hydroxylation (CYP2E1) [7]	IC50, phenacetin O-deethylation (CYP1A2) [8]	Compound	pIC50 [1]	Role of CYP3A5 in formation of metabolites [2]	Cytotoxicity [3]	Role of CYP3A4 in formation of metabolites M1-M4 [5]
					CC(C)(C)NC(=O)[C@@H]1C[C@@H]2CCCC[C@@H]2CN1C[C@@H](O)[C@H](Cc1ccccc1)NC(=O)[C@H](CC(N)=O)NC(=O)c1ccc2ccccc2n1 [saquinavir]	5.67			
> 10 µM	did not affect	4.59 to 4.66	>50 µM	>50 µM	CCC(=O)N[C@@H](CC(C)C)C(=O)N[C@H](C)C(=O)N[C@@H]1Cc2ccc(cc2)Oc2cc(ccc2O)C[C@@H]2NC(=O)[C@H]([C@@H](C)CC)NC(=O)[C@H](CC(C)C)NC(=O)[C@@H](CC(C)C)NC(=O)[C@@H](NC1=O)[C@@H](C)OC2=O [Seongsanamide A]		major metabolic enzymes; also recorded: CYP3A5 was involved in the formation of mono-hydroxyseongsanamide A (M2)	without significant cytotoxicity	major metabolic enzymes; also recorded: CYP3A4 played a major role in the formation of M1, M2, M3, and M4

From article PMC8309059, “In Vitro Metabolism Study of Seongsanamide A in Human Liver Microsomes Using Non-Targeted Metabolomics and Feature-Based Molecular Networking” (Pharmaceutics, 2021)
